Test results published in PubChem BioAssay (NCI).
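Compound exposure: 48 hours, 5 concentrations, 96-well plates. GI50: concentration for 50% inhibition of growth. At the TGI there is no net growth.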

Assays:
Assay in all cases: inhibition of tumour cell growth, NCI panel, 48 h
SK-MEL-2 melanoma = tested on: SK-MEL-2 melanoma
MCF7 breast = tested on: MCF7 breast
OVCAR-4 ovarian = tested on: OVCAR-4 ovarian
HCT-15 colon = tested on: HCT-15 colon
SK-MEL-5 melanoma = tested on: SK-MEL-5 melanoma
UO-31 renal = tested on: UO-31 renal
SNB-19 CNS = tested on: SNB-19 CNS
SK-MEL-28 melanoma = tested on: SK-MEL-28 melanoma
SR leukemia = tested on: SR leukemia
UACC-257 melanoma = tested on: UACC-257 melanoma
A498 renal = tested on: A498 renal
HCC-2998 colon = tested on: HCC-2998 colon
DU-145 prostate = tested on: DU-145 prostate
ACHN renal = tested on: ACHN renal
T-47D breast = tested on: T-47D breast
BT-549 breast = tested on: BT-549 breast
MALME-3M melanoma = tested on: MALME-3M melanoma
TK-10 renal = tested on: TK-10 renal
IGROV1 ovarian = tested on: IGROV1 ovarian
OVCAR-3 ovarian = tested on: OVCAR-3 ovarian
SN12C renal = tested on: SN12C renal
NCI/ADR-RES ovarian = tested on: NCI/ADR-RES ovarian
M14 melanoma = tested on: M14 melanoma
786-0 renal = tested on: 786-0 renal
HOP-92 NSCLC = tested on: HOP-92 NSCLC
SF-295 CNS = tested on: SF-295 CNS
SK-OV-3 ovarian = tested on: SK-OV-3 ovarian
SF-539 CNS = tested on: SF-539 CNS
PC-3 prostate = tested on: PC-3 prostate
LOX IMVI melanoma = tested on: LOX IMVI melanoma
UACC-62 melanoma = tested on: UACC-62 melanoma
COLO 205 colon = tested on: COLO 205 colon
A549 NSCLC = tested on: A549 NSCLC
CCRF-CEM leukemia = tested on: CCRF-CEM leukemia
OVCAR-8 ovarian = tested on: OVCAR-8 ovarian
MDA-MB-435 = tested on: MDA-MB-435
K-562 leukemia = tested on: K-562 leukemia
SF-268 CNS = tested on: SF-268 CNS
EKVX NSCLC = tested on: EKVX NSCLC
MOLT-4 leukemia = tested on: MOLT-4 leukemia
SW-620 colon = tested on: SW-620 colon
HCT-116 colon = tested on: HCT-116 colon
RPMI-8226 leukemia = tested on: RPMI-8226 leukemia
HT29 colon = tested on: HT29 colon
OVCAR-5 ovarian = tested on: OVCAR-5 ovarian
MDA-N = tested on: MDA-N
HL-60(TB) leukemia = tested on: HL-60(TB) leukemia
CAKI-1 renal = tested on: CAKI-1 renal
HS 578T breast = tested on: HS 578T breast
KM12 colon = tested on: KM12 colon
NCI-H522 lung = tested on: NCI-H522 lung
HOP-62 NSCLC = tested on: HOP-62 NSCLC
NCI-H23 lung = tested on: NCI-H23 lung
NCI-H460 lung = tested on: NCI-H460 lung
SNB-75 CNS = tested on: SNB-75 CNS
U251 CNS = tested on: U251 CNS
MDA-MB-231 breast = tested on: MDA-MB-231 breast
NCI-H226 lung = tested on: NCI-H226 lung
RXF 393 renal = tested on: RXF 393 renal

CC1(C)OC(CP(c2ccccc2)c2ccccc2)C(CP(c2ccccc2)c2ccccc2)O1 (configuration not stated)
TGI (SK-MEL-2 melanoma): 10.7 µM
TGI (MCF7 breast): > 100 µM
TGI (OVCAR-4 ovarian): > 87.3 µM
TGI (HCT-15 colon): > 100 µM
TGI (SK-MEL-5 melanoma): > 26.4 µM
GI50 (UO-31 renal): 2.78 µM
TGI (UO-31 renal): > 100 µM
TGI (SNB-19 CNS): > 100 µM
TGI (SK-MEL-28 melanoma): > 100 µM
TGI (SR leukemia): > 100 µM
TGI (UACC-257 melanoma): > 100 µM
TGI (A498 renal): > 100 µM
TGI (HCC-2998 colon): > 100 µM
TGI (DU-145 prostate): > 55.5 µM
GI50 (ACHN renal): 2.98 µM
TGI (ACHN renal): > 100 µM
GI50 (T-47D breast): 0.173 µM
TGI (T-47D breast): 0.947 µM
TGI (BT-549 breast): > 100 µM
TGI (MALME-3M melanoma): 41.1 µM
TGI (TK-10 renal): > 100 µM
TGI (IGROV1 ovarian): > 100 µM
TGI (OVCAR-3 ovarian): > 100 µM
TGI (SN12C renal): > 100 µM
TGI (NCI/ADR-RES ovarian): > 100 µM
TGI (M14 melanoma): > 100 µM
TGI (786-0 renal): > 100 µM
TGI (HOP-92 NSCLC): > 27.7 µM
TGI (SF-295 CNS): > 100 µM
TGI (SK-OV-3 ovarian): > 100 µM
TGI (SF-539 CNS): > 100 µM
TGI (PC-3 prostate): > 100 µM
TGI (LOX IMVI melanoma): > 100 µM
TGI (UACC-62 melanoma): > 100 µM
TGI (COLO 205 colon): 2.75 µM
TGI (A549 NSCLC): > 100 µM
TGI (CCRF-CEM leukemia): 45.5 µM
TGI (OVCAR-8 ovarian): > 100 µM
TGI (MDA-MB-435): > 100 µM
TGI (K-562 leukemia): > 100 µM
TGI (SF-268 CNS): > 100 µM
TGI (EKVX NSCLC): > 100 µM
TGI (MOLT-4 leukemia): > 100 µM
TGI (SW-620 colon): > 100 µM
TGI (HCT-116 colon): > 100 µM
GI50 (RPMI-8226 leukemia): 2.75 µM
TGI (RPMI-8226 leukemia): 14.4 µM
TGI (HT29 colon): > 100 µM
TGI (OVCAR-5 ovarian): 7.73 µM
TGI (MDA-N): > 28.1 µM
TGI (HL-60(TB) leukemia): 1.84 µM
TGI (CAKI-1 renal): > 100 µM
TGI (HS 578T breast): > 100 µM
TGI (KM12 colon): > 38.1 µM
TGI (NCI-H522 lung): > 22.7 µM
GI50 (HOP-62 NSCLC): 0.56 µM
TGI (HOP-62 NSCLC): > 100 µM
TGI (NCI-H23 lung): > 22.5 µM
TGI (NCI-H460 lung): > 100 µM
GI50 (SNB-75 CNS): 0.865 µM
TGI (SNB-75 CNS): 5.33 µM
TGI (U251 CNS): > 100 µM
TGI (MDA-MB-231 breast): > 100 µM
TGI (NCI-H226 lung): > 100 µM

O=C(Nc1ccccc1)n1[nH]c(=O)n(-c2ccccc2)c1=O
TGI (SK-MEL-2 melanoma): > 100 µM
TGI (MCF7 breast): > 100 µM
TGI (OVCAR-4 ovarian): > 100 µM
TGI (HCT-15 colon): > 100 µM
TGI (SK-MEL-5 melanoma): > 100 µM
TGI (UO-31 renal): > 100 µM
TGI (SNB-19 CNS): > 100 µM
TGI (SK-MEL-28 melanoma): > 100 µM
TGI (SR leukemia): > 100 µM
TGI (UACC-257 melanoma): > 100 µM
TGI (A498 renal): > 100 µM
TGI (HCC-2998 colon): > 100 µM
TGI (DU-145 prostate): > 100 µM
TGI (ACHN renal): > 100 µM
TGI (T-47D breast): > 100 µM
TGI (BT-549 breast): > 100 µM
TGI (MALME-3M melanoma): > 100 µM
TGI (TK-10 renal): > 100 µM
TGI (SN12C renal): > 100 µM
TGI (NCI/ADR-RES ovarian): > 100 µM
TGI (786-0 renal): > 100 µM
TGI (HOP-92 NSCLC): > 100 µM
TGI (SF-295 CNS): > 100 µM
TGI (SK-OV-3 ovarian): > 100 µM
TGI (SF-539 CNS): > 100 µM
TGI (PC-3 prostate): > 100 µM
TGI (LOX IMVI melanoma): > 100 µM
TGI (UACC-62 melanoma): > 100 µM
TGI (COLO 205 colon): > 100 µM
TGI (A549 NSCLC): > 100 µM
TGI (CCRF-CEM leukemia): > 100 µM
TGI (OVCAR-8 ovarian): > 100 µM
TGI (MDA-MB-435): > 100 µM
TGI (K-562 leukemia): > 100 µM
TGI (SF-268 CNS): > 100 µM
TGI (SW-620 colon): > 100 µM
TGI (HCT-116 colon): > 100 µM
TGI (RPMI-8226 leukemia): > 100 µM
TGI (HT29 colon): > 100 µM
TGI (MDA-N): > 100 µM
TGI (HL-60(TB) leukemia): > 100 µM
TGI (CAKI-1 renal): > 100 µM
TGI (HS 578T breast): > 100 µM
TGI (KM12 colon): > 100 µM
TGI (NCI-H522 lung): > 100 µM
TGI (NCI-H23 lung): > 100 µM
TGI (NCI-H460 lung): > 100 µM
TGI (SNB-75 CNS): > 100 µM
TGI (U251 CNS): > 100 µM
TGI (MDA-MB-231 breast): > 100 µM
TGI (NCI-H226 lung): > 100 µM

O=C(O)c1cc(-c2ccncc2)nc2ccccc12
TGI (SK-MEL-2 melanoma): > 100 µM
TGI (MCF7 breast): > 100 µM
TGI (OVCAR-4 ovarian): > 100 µM
TGI (HCT-15 colon): > 100 µM
TGI (SK-MEL-5 melanoma): > 100 µM
TGI (UO-31 renal): > 100 µM
TGI (SNB-19 CNS): > 100 µM
TGI (SK-MEL-28 melanoma): > 100 µM
TGI (SR leukemia): > 100 µM
TGI (UACC-257 melanoma): > 100 µM
TGI (A498 renal): > 100 µM
TGI (HCC-2998 colon): > 100 µM
TGI (DU-145 prostate): > 100 µM
TGI (ACHN renal): > 100 µM
TGI (T-47D breast): > 100 µM
TGI (BT-549 breast): > 100 µM
TGI (MALME-3M melanoma): > 100 µM
TGI (TK-10 renal): > 100 µM
TGI (IGROV1 ovarian): > 100 µM
TGI (OVCAR-3 ovarian): > 100 µM
TGI (SN12C renal): > 100 µM
TGI (NCI/ADR-RES ovarian): > 100 µM
TGI (M14 melanoma): > 100 µM
TGI (786-0 renal): > 100 µM
TGI (HOP-92 NSCLC): > 100 µM
TGI (RXF 393 renal): > 100 µM
TGI (SF-295 CNS): > 100 µM
TGI (SK-OV-3 ovarian): > 100 µM
TGI (SF-539 CNS): > 100 µM
TGI (PC-3 prostate): > 100 µM
TGI (LOX IMVI melanoma): > 100 µM
TGI (UACC-62 melanoma): > 100 µM
TGI (COLO 205 colon): > 100 µM
TGI (A549 NSCLC): > 100 µM
TGI (OVCAR-8 ovarian): > 100 µM
TGI (MDA-MB-435): > 100 µM
TGI (K-562 leukemia): > 100 µM
TGI (SF-268 CNS): > 100 µM
TGI (EKVX NSCLC): > 100 µM
TGI (MOLT-4 leukemia): > 100 µM
TGI (SW-620 colon): > 100 µM
TGI (HCT-116 colon): > 100 µM
TGI (RPMI-8226 leukemia): > 100 µM
TGI (HT29 colon): > 100 µM
TGI (OVCAR-5 ovarian): > 100 µM
TGI (MDA-N): > 100 µM
TGI (HL-60(TB) leukemia): > 100 µM
TGI (CAKI-1 renal): > 100 µM
TGI (HS 578T breast): > 100 µM
TGI (KM12 colon): > 100 µM
TGI (NCI-H522 lung): > 100 µM
TGI (HOP-62 NSCLC): > 100 µM
TGI (NCI-H23 lung): > 100 µM
TGI (NCI-H460 lung): > 100 µM
TGI (U251 CNS): > 100 µM
TGI (MDA-MB-231 breast): > 100 µM
TGI (NCI-H226 lung): > 100 µM
